Legend:
blood platelets (PRP) = assay: Platelet aggregation-inhibiting activity in vitro (collagen, rat platelet-rich plasma); format: cell-based, male SD rats; conditions: final concentration 100 μg/ml, 37° C.
Procedure: (Platelet aggregation-inhibiting activity)
Blood was collected from the abdominal aorta of male SD rats (body weight: 250-300 g) which were anesthetized with ether. Nine volumes of said blood were mixed with one volume of an aqueous 3.8% (w/v) trisodium citrate solution, and the mixture was centrifuged at 500×g for 5 minutes to give platelet-rich plasma (hereinafter referred to as "PRP") as the supernatant solution. The bottom layer was further centrifuged at 1000×g for 10 minutes to give platelet-poor plasma (hereinafter referred to as "PPP") as the supernatant solution. PRP was diluted with PPP so that the blood platelet count was 8-10×10^5 /mm^3. Then, a mixture of 200 μl of said diluted PRP and 25 μl of a test compound solution (final concentration: 100 μg/ml) was introduced into a glass cell of SIENCO aggregometer (Sienco Inc., Morrison, Colo. Model DP-247-D). After the mixture was stirred at 1100 rpm at 37° C. for 2 minutes, 25 μl of a collagen solution (prepared by Holmsen's method described in Biochim. Biophys. Acta, Vol. 186, page 254(1969)) was added thereto, and the percentage inhibition of platelet aggregation was calculated in accordance with the following formula from the degree of the platelet aggregation which was estimated by Born's method (Nature, 194, page 927([…])). [formula]

[1] = tested on: serum cholesterol and serum triglyceride; assay: Hypolipidemic activity in rats (serum cholesterol and triglyceride, one-week diet); format: in vivo; conditions: male SD rats, 50 mg % in diet
Procedure: (§1) A test compound (50 mg %) was added to a commercial diet, and male SD rats (body weight: 120-140 g, a group of 5 rats) were fed with the diet ad libitum for one week. After the experimental period, blood was collected from the tail vein of the rats under ether anesthesia. Serum cholesterol and serum triglyceride were measured according to the methods of Zak (Amer. J. Clin. Pathol., Vol. 24, page 1307(1954)) and Van Handel-Zilversmit (J. Lab. & Clin. Med., Vol. 55, page 152(1957)), respectively. Then, the increase (%) in liver weight and the decrease (%) in serum cholesterol or triglyceride were calculated according to the following formulae: [formula]

platelet aggregation = assay: Platelet aggregation-inhibiting activity after oral administration (ex vivo); format: in vivo; conditions: 100 mg/kg, one hour after administration, male SD rats, collagen
[2] = Increase in liver weight in rats (one-week diet); format: in vivo; conditions: male SD rats, 50 mg % in diet
Procedure: as §1

| SMILES | inhibition at 100 µg/mL (blood platelets (PRP)) [%] | Decrease (%) in serum cholesterol [1] [%] | Decrease (%) in serum triglyceride [1] [%] | Percentage inhibition of platelet aggregation (platelet aggregation) [%] | increase (%) in liver weight [2] [%] |
| --- | --- | --- | --- | --- | --- |
| O=C(O)Cc1nc(-c2ccc(Cl)cc2)oc1-c1ccsc1 [2-[2-(4-chlorophenyl)-5-(3-thienyl)-4-oxazolyl]acetic acid] | ≥ 10 | 18 | 49 |  |  |
| O=C(O)Cc1nc(-c2ccc(F)cc2)oc1-c1cccs1 [2-[2-(4-fluorophenyl)-5-(2-thienyl)-4-oxazolyl]acetic acid] | ≥ 10 | 17 | 27 |  |  |
| O=C(O)Cc1nc(-c2ccc(F)cc2)oc1-c1ccsc1 [2-[2-(4-fluorophenyl)-5-(3-thienyl)-4-oxazolyl]acetic acid] | ≥ 10 | 23 | 39 | 93 ± 6 |  |
| CCOC(=O)C(C)(C)Oc1ccc(Cl)cc1 [Clofibrate, 2-(4-chlorophenoxy)-2-methylpropanoic acid ethyl ester, reference compound] | < 10 | 15 | 16 |  | 12 |
| CCOC(=O)Cc1nc(-c2ccc(F)cc2)oc1-c1cccs1 [ethyl 2-[2-(4-fluorophenyl)-5-(2-thienyl)-4-oxazolyl]acetate] | ≥ 10 | 17 | 43 |  |  |
| CCOC(=O)Cc1nc(-c2ccc(F)cc2)oc1-c1ccsc1 [ethyl 2-[2-(4-fluorophenyl)-5-(3-thienyl)-4-oxazolyl]acetate] | ≥ 10 | 19 | 31 |  |  |
| CCCCCOC(=O)Cc1nc(-c2ccc(Cl)cc2)oc1-c1ccsc1 [n-pentyl 2-[2-(4-chlorophenyl)-5-(3-thienyl)-4-oxazolyl]acetate] |  | 19 | 45 |  |  |
| CCCCCOC(=O)Cc1nc(-c2ccccc2)oc1-c1ccsc1 [n-pentyl 2-[2-phenyl-5-(3-thienyl)-4-oxazolyl]acetate] | ≥ 10 | 20 | 30 |  |  |
